Results taken from PubChem BioAssay AID743496 (The Scripps Research Institute Molecular Screening Center, 2014).
Active and inactive are the calls of the source. The rule behind the calls is not given here.

system: Ga16-expressing cells, calcium fluorescence, counterscreen for TAAR1 agonists; experiment: Ga16 cell calcium activation, analog series – fluorescence, dose response, MedChem round 1, counter-screen for TAAR1 agonist project, SAR follow-up (AID 743496)

| Compound | EC50 |
| --- | --- |
| O=C(CCN1C[C@@H](C(=O)O)[C@H](c2ccccc2)C1)NC1CCCC1 | > 29.9 µM (inactive) |
| O=C(CCN1C[C@@H](C(=O)O)[C@H](c2ccccc2)C1)NCc1cccs1 | > 29.9 µM (inactive) |
| O=C(CCN1CCC(c2ccccc2)C1)c1ccccc1 (stereo unspecified) | > 29.9 µM (inactive) |
| Cc1ccc(C(=O)CCN2CCC(c3ccccc3)C2)cc1 (stereo unspecified) | > 29.9 µM (inactive) |
| O=C(CCN1CCC(O)(c2ccccc2)C1)c1ccc2c(c1)OCCO2 (stereo unspecified) | > 29.9 µM (inactive) |
| O=C(CCN1C[C@@H](C(=O)O)[C@H](c2cccc(F)c2)C1)NC1CC1 | > 29.9 µM (inactive) |
| CC(CN1CCCC1Cc1ccccc1)C(=O)c1ccc2c(c1)OCCO2 (stereo unspecified) | > 29.9 µM (inactive) |
| O=C(CCN1CCC(O)(c2ccc(F)cc2)C1)c1ccc2c(c1)OCCO2 (stereo unspecified) | > 29.9 µM (inactive) |
| NC(=O)CCN1C[C@H](c2ccccc2)[C@@H]2[C@H]1C1CCN2CC1 | > 29.9 µM (inactive) |
| CC1CN(CCC(=O)c2ccc3c(c2)OCCO3)CC1c1ccccc1 (stereo unspecified) | > 29.9 µM (inactive) |
| CC(CN1CCC(c2ccccc2)C1)C(=O)c1ccc2c(c1)OCCO2 (stereo unspecified) | > 29.9 µM (inactive) |
